The source of these data is paper PMC10981309, “Dual-targeting tigecycline nanoparticles for treating intracranial infections caused by multidrug-resistant Acinetobacter baumannii” (Journal of Nanobiotechnology, 2024).

≈ marks a conversion by molar mass, not a printed value.

A short description of series [1]: In vitro drug release, dialysis method in PBS pH 7.4. It counts as physicochemical. As to conditions: PBS pH 7.4, 37 °C. How it is done: An in vitro drug release study was conducted employing the dialysis method, with phosphate-buffered saline (PBS, pH = 7.4) as the release medium. For this study, 2 mL aliquots of free Tigecycline (TGC), CSs, or Aβ11/T80@CSs (each containing 1 mg of TGC) were sealed in dialysis bags with a molecular weight cutoff of 3.5 kDa. These bags were then immersed in 30 mL of PBS and gently agitated at 37 °C. At predetermined time intervals, 1.0 mL of PBS was sampled from outside each dialysis bag for HPLC analysis, and an equivalent volume of fresh PBS was replenished to maintain a constant volume in the release medium.

Another series has as its system bEnd.3 cells monolayer. Nature of the series: Transmembrane transport assay, in vitro BBB model. It counts as in vitro ADME. Particulars: bEnd.3 Transwell monolayer, apical to basolateral, TGC by HPLC. How it is done: An in vitro blood–brain barrier (BBB) model using bEnd.3 cells was developed to assess nanoparticle penetration. 2.0 × 10^5 cells were cultured in a Transwell chamber, achieving an intercellular compactness verified at 200 Ω·cm^2 transendothelial electrical resistance. […] Using Hank's Balanced Salt Solution, nanoparticles were added to the apical side and co-incubated. At intervals, 200 μL HBSS was sampled from the basolateral side for TGC concentration analysis via HPLC.

For series [2], the system named is multidrug-resistant A. baumannii. Nature of the series: Minimum inhibitory concentration, microbroth dilution. It counts as cell-based. As to conditions: Acinetobacter baumannii; 1 × 10^5 CFU/mL, 24 h, OD 600 nm. The method, then:
Mid-log phase bacteria, diluted to 1 × 10^5 CFU/mL, were mixed with these compounds (0.125–16 μg/mL) and incubated in 96-well plates for 24 h, with bacterial density measured at 600 nm. In a rat model, MDR A. baumannii was injected intracisternally (20 μL, 1 × 10^8 CFU/mL) into the CSF. […] CSF was collected after 24 h and cultured, with colony counts noted after 24 h at 37 °C.
For orientation: Dilution methods test growth across graded concentrations, often in twofold steps.

Series [3] in a line: Pharmacokinetics after intravenous injection. The series is classed as in vivo. Particulars: female, Sprague-Dawley, rat, rats, i.v. 12.5 mg/kg TGC, plasma. The method, then:
In the pharmacokinetic study, adult female Sprague–Dawley rats, weighing between 200 and 250 g, were used. Prior to the experiment, the animals were fasted overnight with free access to water. […] Each group received an intravenous administration of TGC at a dose of 12.5 mg/kg via the tail vein. Blood samples were collected at predetermined time points (0.25, 0.5, 1, 2, 4, 6, and 8 h), and then placed into 2 mL Eppendorf tubes. These samples were centrifuged at 10,000 rpm for 10 min at 4 °C to separate the plasma. A portion of the plasma was mixed with methanol in a 1:4 volume ratio and further centrifuged at 13,000 rpm for 10 min at 4 °C. The supernatant was collected for TGC concentration determination using HPLC. Pharmacokinetic parameters were subsequently calculated using the statistical analysis tool DAS2.

The next series can be described thus: Hemolysis assay. Further details: species or system rats. Particulars: rat; 2% erythrocyte suspension, 37 °C, three hours, relative to positive control (water); read-out: hemolysis rate. The method, then: The hemolytic activity of Aβ11/T80@CSs was assessed using erythrocytes from healthy rats. Blood samples were collected, and red blood cells were isolated through centrifugation, followed by suspension in normal saline to create a 2% erythrocyte solution. Two milliliters of this erythrocyte suspension were mixed with free TGC, CSs, or Aβ11/T80@CSs and incubated at 37 °C for three hours. Post-incubation, the samples were centrifuged, and the absorbance of the supernatant was measured using spectrophotometry at 570 nm. Purified water and normal saline served as positive and negative controls, respectively. The percentage of hemolysis was calculated using the following formula: Hemolysis%=Asample-Anegative/Apositive-Anegativ×100%

The subject of the next series is bEnd.3 cells. Nature of the series: Cell cytotoxicity, MTT assay. It counts as cell-based. As to conditions: 24-h incubation, across a range of TGC concentrations. (In general: Tetrazolium dyes change colour on reduction, which living cells bring about.)
Series [4] in a line: Histological analysis (H&E) of heart, liver, spleen, lungs and kidneys. The series is classed as in vivo, rats. Particulars: compared to normal control group. From the text:
To further investigate the biosafety of the various formulations in vivo, blood samples were collected post-administration for biochemical analysis. After euthanizing the rats, their heart, liver, spleen, lung, and kidney tissues were harvested. These tissues underwent hematoxylin and eosin (H&E) staining and were subsequently imaged using a pathology slide scanner.

In general, MIC refers to the lowest concentration found to suppress growth. Higher therefore signals weaker potency. The Cmax is the highest concentration seen after dosing. What is called Tmax is the time at which the peak concentration occurs. By clearance is commonly meant the volume of plasma or blood freed of the substance per unit of time. Low values mean a low capacity for elimination, high ones a high capacity for elimination. By half-life is commonly meant the time needed for the level to fall by half in the phase considered. A higher half-life goes with slow loss. Usually AUC(0-t) stands for exposure summed from dosing to a finite time, without extrapolation to infinity. The low end stands for low exposure, the high end for high exposure.

In the case of `CN(C)c1cc(NC(=O)CNC(C)(C)C)c(O)c2c1C[C@H]1C[C@H]3[C@H](N(C)C)C(O)=C(C(N)=O)C(=O)[C@@]3(O)C(O)=C1C2=O` [Free-TGC, Tigecycline], the “time to complete release” value in series [1] is reported as “within three hours”. Moreover, the “permeability / transport capacity across in vitro BBB model” value in the series on bEnd.3 cells monolayer is recorded as “lowest permeability”. The compound also gave an MIC in series [2] of 2 µg/mL (≈ 3.41 µM). Also, in series [3], the highest level (Cmax) was 3700 ± 620 ng/mL, the Tmax turned out to be 15 min, the clearance is 20 mL/min/kg and the half-life is 46.2 ± 14.4 min. In addition, in series [3] (0-8 h), the AUC(0-t) worked out at 8480 ± 2900 ng·h/mL. Besides, in series [3] (read-out: MRT(0-t)), the MRT last is 2.6 ± 0.16 h. Besides, the hemolysis at 3 h in “Hemolysis assay” is < 5%. In addition, the cell survival rate entry in the series with bEnd.3 cells was “exceeded 80%”. Moreover, the “histopathology of heart, liver, spleen, lungs and kidneys” value in series [4] was “no significant pathological alterations”.
